Assay results published in patent US20080319065A1, “Systemic and Intrathecal Effects of a Novel Series of Phospholipase A2 Inhibitors on Hyperalgesia and Spinal Pge2 Release” (The Regents of the University of California, priority 2005, published 2008).

Columns and labels:
spinal release of PGE2 = assay: Intrathecal dialysis and PGE2 assay; type: in vivo, rat; conditions: 3 mg/kg IP pretreatment
Excerpt: For spinal drug injections, lumbar catheters were implanted in rats under isoflurane anesthesia according to a modification of the procedure described by Yaksh (Yaksh and Rudy, supra, 1976). A polyethylene catheter (PE-5; Spectranetics, 0.014 in OD) was inserted into the intrathecal space and advanced to the rostral edge of the lumbar enlargement through an incision in the atlanto-occipital membrane. Five days after implantation rats were entered into the study. In separate experiments to assess spinal prostaglandins release, rats were prepared with lumbar loop dialysis catheters with three lumens, as previously described, see (Yaksh, et al., supra, 2001).
In brief, the outer two lumens were connected to a length of dialysis tubing (10 Kda cut off). The catheter was then implanted intrathecally using the same technique as described above for the intrathecal catheter. A three-day interval was allowed to elapse prior to including the animal in a study. In all cases, the exclusion criteria were i) presence of any neurological sequelae, ii) 20% weight loss after implantation, or iii) catheter occlusion.
Spinal dialysis experiments to define the spinal release of PGE2 were conducted in unanesthetized rats 3 days after dialysis catheter implantation. A syringe pump (Harvard, Natick, Mass.) was connected and dialysis tubing was perfused with artificial cerebro spinal fluid (ACSF) at a rate of 10 μl/min. The ACSF contained (mM) 151.1 Na^+, 2.6 K^+, 0.9 Mg^2+, 1.3 Ca^2+, 122.7 Cl^−, 21.0 HCO3, 2.5 HPO4 and 3.5 dextrose and was bubbled with 95% O2/5% CO2 before each experiment to adjust the final pH to 7.2. The efflux (20 min per fraction) was collected in an automatic fraction collector (Eicom, Kyoto, Japan) at 4° C. […] The concentration of PGE2 in spinal dialysate was measured by ELISA using a commercially available kit (Assay Designs 90001, Assay Designs, Ann Arbor, Mich.). The antibody is selective for PGE2 with less than 2.0% cross-reactivity to PGF1, PGF2, 6-ketoPGF1, PGA2 or PGB2, but cross-reacts with PGE1 and PGE3.

[1] = target: T1, Group IVA cPLA2 (GIVA PLA2) (Homo sapiens, UniProt P47712); assay: In vitro Group IVA cPLA2 mixed micelle assay; type: biochemical
T1 sequence (P47712 1-749): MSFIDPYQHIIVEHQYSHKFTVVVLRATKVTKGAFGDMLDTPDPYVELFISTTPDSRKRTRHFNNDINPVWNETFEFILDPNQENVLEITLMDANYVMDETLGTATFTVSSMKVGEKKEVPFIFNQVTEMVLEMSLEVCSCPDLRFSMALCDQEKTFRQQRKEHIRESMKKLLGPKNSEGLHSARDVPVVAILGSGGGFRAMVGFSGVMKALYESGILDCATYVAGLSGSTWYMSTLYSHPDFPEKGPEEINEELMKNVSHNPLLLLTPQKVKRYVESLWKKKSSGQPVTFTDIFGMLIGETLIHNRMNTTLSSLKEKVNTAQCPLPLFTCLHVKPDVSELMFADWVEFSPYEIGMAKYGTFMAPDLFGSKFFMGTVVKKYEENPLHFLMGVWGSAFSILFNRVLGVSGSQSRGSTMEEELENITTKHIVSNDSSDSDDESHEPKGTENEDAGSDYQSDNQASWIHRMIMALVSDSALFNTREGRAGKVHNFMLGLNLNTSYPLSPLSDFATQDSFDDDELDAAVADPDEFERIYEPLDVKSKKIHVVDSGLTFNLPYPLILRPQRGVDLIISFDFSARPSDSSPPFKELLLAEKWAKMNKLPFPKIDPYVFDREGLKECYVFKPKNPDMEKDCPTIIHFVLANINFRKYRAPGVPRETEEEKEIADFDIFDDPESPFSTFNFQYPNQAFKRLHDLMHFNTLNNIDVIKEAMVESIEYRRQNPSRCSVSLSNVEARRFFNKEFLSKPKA

SMILES | IT SP-evoked release of PGE2 in spinal dialysate (spinal release of PGE2) | inhibition of GIVA PLA2 (cPLA2), in words [1] | Group IVA XI(50), class ([1]; at 0.091 mole fraction) | Inhibition of GIVA PLA2 ([1]; at highest dose) | Group IVA XI(50) (mole fraction) ([1]; Table 1b)
CCC(=O)C(=O)NCCCC(=O)OC [AX010] | significant increase as compared to vehicle only | does not significantly inhibit GIVA PLA2 | N.D. (25% inhibition or less at 0.091 mole fraction) | ND (negligible inhibition (0-25%) at highest dose) | –
CCCCCCCCCCCCCCC(=O)C(=O)NCCCC(=O)OCC [AX048, Ethyl 4-[(2-oxohexadecanoyl)amino]butanoate] | significant inhibitory effect upon PGE2 synthesis and release | – | – | – | 0.022 ± 0.009 mole fraction
